One data set has as its system PC7. Briefly: PC7 shedding of hTfR1 into the media, Huh7 cells. Format: cell-based, human. As to conditions: Huh7, 2×, 3× and 5× miR-125a-5p vector. The procedure: FIGS. 32A-B Western blot (FIG. 32A) and quantitative (FIG. 32B) analysis of human PC7 and TFR1 expression in Huh7 cells, in which miR-125-5p was overexpressed. […] X stands for vector DNA fold for miR-125-5p compared to vector expressing PC7. Because both PC7-V5 and hTfR1-V5 were V5-tagged, the WB using a mAb-V5 reflects the expression of both proteins.
In the next step, the effect of miR-125a-5p on PC7 function was determined. First, the miR-125a-5p-overexpressing vector and its related mock plasmids were co-transfected with the pIRES vector (Invitrogen, USA), containing the full length of cDNA encoding the PCSK7 mRNA with the complete 3′-UTR in Huh7 cells. […] Thereafter, the impact of miR-125a-5p on the enzymatic function of PC7 was assessed by co-transfecting Huh7 cells with the miR-125a-5p-overexpressing vector, with that coding for the full length of PCSK7, and a plasmid encoding hTfR1 (Guillemot et al., 2013; Durand et al., 2020). […]
Subsequently, proteins were isolated with an ice-cold RIPA buffer (1×), comprising 50 mM of Tris hydrochloride (pH 8), 150 mM of sodium chloride, 0.1% sodium dodecyl sulfate, 1% Nonidet P40, 0.25% sodium deoxycholate, and a cocktail of protease inhibitors (Roche, Oakville, ON, Canada). […] Subsequently, immunoreactive bands (the signal) were visualized with an enhanced chemiluminescent reaction kit (Bio-Rad, USA) and recorded via chemiluminescence. […]

The test system of data set [1] is 3′-UTR of human PCSK7 mRNAs. The experiment in a line: Dual-luciferase reporter assay, wild-type PCSK7 3′-UTR, HEK293T cells. Format: cell-based. As to conditions: wild-type PCSK7 3′-UTR psiCHECK-2, HEK293T. An excerpt: The interactions between the miRNAs and their probable targets on PCSK7 were explored by cloning the potential target regions in psiCHECK-2™ (Promega, USA), a luciferase reporter vector. In psiCHECK-2™, hRluc, the Renilla luciferase gene, is located upstream of the target regions of interest cloned into the psiCHECK-2™ vector downstream of the Renilla gene. The region corresponding to the 3′-UTR of PCSK7 (926-nt sequences in length) that constituted the predicted miRNA response elements was PCR-amplified and cloned downstream of the Renilla luciferase gene in the psiCHECK-2™ vector (Promega, USA). […]
The HEK293T cells were co-transfected through the application of the wild-type psiCHECK-2, the wild-type PCSK7 3′-UTR, the mutant PCSK7 3′-UTR, and the miR-overexpressing vectors so that the direct interactions of the nominated miRNAs with PCSK7 3′-UTR could be investigated. […] Transfection efficiency was monitored by fluorescent microscopy (Nikon TE2000S, Japan) 36 hours following the procedure.
The PsiCHECK-2 reporter construct plasmid contained the Renilla luciferase gene upstream of PCSK7 3′-UTR and an independent firefly luciferase gene as an internal control for normalization. […] Then, LARII Reagent was added, and after 20 minutes, the firefly luciferase activity was measured as a control. Afterward, Renilla activity was determined using Stop & Glo Reagent. […]
(In general: In a reporter assay the amount or activity of a reporter protein is the signal.)

In the case of “miR-125a-5p: miRNA targeting PCSK7 3′-UTR and exons 14 and 15, overexpressed from pEGFP-C1 precursor vector (UCCCUGAGACCCUUUAACCUGUGA; miRNA expressed from a pEGFP-C1 precursor vector, further chemistry not given here)”, the “ability of PC7 to shed hTfR1 into the media” value in the data set on PC7 is on record as “led to a decline”. For the same substance, the “reduction of relative luciferase activity” value in data set [1] is approximately 50%.

For the origin of these results see patent publication US20250129370A1, “METHOD FOR REDUCING HEPATIC TRIGLYCERIDES” (ADAERATA, LIMITED PARTNERSHIP, priority 2022, published 2025).
